Measurements: patent publication US20250136934A1, “PRODUCTION OF INDUCED MIDBRAIN DOPAMINERGIC PROGENITOR CELLS FROM PLURIPOTENT STEM CELLS” (NUWACELL BIOTECHNOLOGIES CO., LTD., priority 2023, published 2025)

Tested on: PAX6
Assay: qRT-PCR analysis of dorsal midbrain marker PAX6 in imDAP cells
Type: cell-based, human
Details: exposure to Boost-CHIR 7.5 μM from Day 4 compared to from Day 5
Protocol: (1) qRT-PCR • 1. For qRT-PCR analysis of mRNA gene expression, RNA should be harvested from at least 2×10^6 cells. • 2. Harvest cells, add 350 μl of buffer RLT+1% (vol/vol) β-mercaptoethanol to the well, transfer the lysate to a 1.5 ml tube, and put it immediately on ice. • 3. Perform RNA extraction using the Tiangen Kit (DP430) and following the manufacturer's protocol ‘Purification of total RNA from animal and human cells’. • 4. When the RNA extraction was completed, determine the RNA concentration using a Nanodrop instrument. • 5. Perform the first-strand cDNA synthesis reaction with 1 μg of RNA using the HiScript™ II Q RT SuperMIX for qPCR (+gDNA wiper) Kit (Vazyme, #R223-01) for RT-qPCR. Follow the manufacturer's ‘First-Strand cDNA Synthesis’ protocol. This reaction would yield a 20 μl product. • 6. Dilute 10 μl cDNA product in 80 μl of nuclease-free water. • 7. […] In the analysis, the expression level of gene was determined by using a sample of undifferentiated hPSCs as control. • 8. Analyze the samples by running a quantitative PCR on the LightCycler 480 instrument using a 40x cycle two-step protocol with a 60° C., 60 sec annealing/elongation step and a 95° C., 30 sec denaturation step. […]

## Cc1cnc(-c2cnc(NCCNc3ccc(C#N)cn3)nc2-c2ccc(Cl)cc2Cl)[nH]1 [CHIR, CHIR99021]
  expression of PAX6: lower
